These results are taken from US5294713A, “2-piperazinone compounds and their use” (Takeda Chemical Industries, Ltd., priority 1991, dated 1994).

The structures appear in SMILES notation.

The target of one experiment is T1, GPIIb/IIIa (Homo sapiens, UniProt P05106+P08514).
T1 construct: Purification of GPIIb/IIIa from HEL Cells; endogenous in cells; host or cells: HEL cells (HEL 92.1.7; ATCC TIB180), human erythroleukemia; GPIIb/IIIa solubilized in Triton X-100, purified and adsorbed on microtiter plates
In words: Inhibition of fibrinogen binding to GPIIb/IIIa. The following applies: purified GPIIb/IIIa from HEL cells, biotinylated human fibrinogen 1 nM. On the procedure:
(1) Cultibation of Cells Derived from Human Erythroleukemia (Hereinafter Referred to as HEL Cells)
HEL cells (HEL 92. 1. 7; ATCC No. TIB180) were purchased from ATCC (Rockville, Md., U.S.A.). The cells were grown in RPMI medium containing 40 mM N-2-hydroxyethylpiperazin-N'-2-ethanesulfonic acid (hereinafter referred to as HEPES) (pH 7.0), 100 μg/ml of Kanamycin and 10% FCS (GIBCO Laboratories, Grand Island, N.Y., U.S.A.). Cultivation was conducted at 37° C in the presence of 5% CO2.
(2) Purification of GPIIb/IIIa from HEL Cells
Purification of GPIIb/IIIa was performed using the following modification of the method of L. A. Fitzgerald et al. [J. Biol. Chem., 262, 3936 (1987)]. The purification was conducted at room temperature unless specifically mentioned. From 7 L of the culture broth on 7th day of the cultibation (floating cells), the cells were collected by centrifugation (1,000×g, 10 minutes, 4° C.), which were washed with 20 mM Tris-HCl(pH 7.5) containing 1 mM EDTA and 150 mM NaCl. The cells were suspended in 80 ml of a solubilized buffer [20 mM Tris-HCl, 150 mM NaCl, 1% Triton X-100, 1 mM MgCl2, 1 mM CaCl2, 0.1 mM (p-amidinophenyl)methanesulfonyl fluoride (hereinafter referred to as APMSF), 10 nM leupeptin, 0.02% NaN3, pH 7.4)].
The cell suspension was gently mixed for 30 minutes at 4° C. to solubilize GPIIb/IIIa. The suspension was subjected to centrigugation (100,000×g, one hour) at 4° C. to remove cell debris to obtain a cell-extraction solution (60 ml). […] The fraction which passed through the column was charged on the ConA-Sepharose column (Pharmacia LKB, .phi. 1.0×15 cm, 20 ml/hr) to allow GPIIb/IIIa to be adsorbed thereon, then GPIIb/IIIa was eluted with column buffer solution containing 0.5 M methyl α-D-mannopyranoside. The eluate thus obtained was allowed to pass through the DEAE-Toyopearl 650 M column (Tosoh, .phi. 1.6×10.5 cm, 20 ml/hr) equilibrated with the same column buffer to remove contaminating proteins.
(3) Biotinylation of Human Fibrinogen
Biotinylation of human fibrinogen was performed by the following procedure [I. F. Charo et al., J. Biol. Chem., 266, 1415 (1991)]. Human fibrinogen (Kabi Vitrum AB, Stockholm, Sweden) was dissolved in PBS so as to make its concentration 5 mg/ml. The solution was dialyzed overnight at 4° C. against 1 L of 0.1 M NaHCO3 -0.1 M NaCl (pH 8.2). Insolubles were then removed by centrifugation (100,000×g, 30 minutes), and the solution was diluted with the same buffer to the protein concentration of 1 mg/ml. To thus-diluted solution was added powdery sulfo-N-hydroxysuccinimidobiotin (Pierce Chemical Co., Rockford, Ill., U.S.A.) so as to make its final concentration 0.2 mg/ml and gently mixed to perform biotinylate fibrinogen. The resultant was subjected to dialysis against 50 mM Tris-HCl (pH 7.4) - 100 mM NaCl-0.05% NaN3. The dialysate was distributed and stored at 4° C.
(4) Inhibition Assay for Fibrinogen Binding to GPIIb/IIIa
This experiment was performed using a modification of the method described in the above-mentioned I. F. Charo et al. report. The purified GPIIb/IIIa was diluted with the buffer A (20 mM Tris-HCl, 150 mM NaCl, 1 mM CaCl2, 0.02% NaN3, pH 7.4) to a concentration of 1 μg/ml. The diluted solution was added to 96-well microtiter plates (MaxiSorp; Nunc, Denmark) at 100 μl per well, which were left standing at 4° C. overnight to allow GPIIb/IIIa to be adsorbed on the microplates. The plate was aspirated, and then 150 μl of the buffer B (35 mg/ml BSA, 50 mM Tris-HCl, 100 mM NaCl, 2 mM CaCl2, 0.02%, NaN3, pH 7.4) was added to the plate, and blocking was performed at 30° C. for 2 hours. The plate was washed twice with 250 μl each of the buffer C (1 mg/ml BSA, 50mM Tris-HCl, 100 mM NaCl, 2 mM CaCl2, pH 7.4).

Experiment [1] concerns human platelet aggregation. In words: Inhibitory action on human platelet aggregation (ADP-stimulated PRP). The class given is cell-based. Particulars: ADP final concentration 3 μM, in vitro, read-out: Inhibitory effect on platelet aggregation in vitro (IC50) man. The procedure: [II] Inhibitory action on human platelet aggregation
Human blood was collected in 3.8% sodium citrate (1 ml for 9 ml of blood) by venipuncture from healthy male volunteers. The blood was centrifuged at 1000 g for 3 to 5 seconds at room temperature to obtain platelet rich plasma (PRP). The PRP was further centrifuged at 1000 g for 10 minutes to obtain platelet poor plasma (PPP). The number of platelets was measured using an automatic blood cell counter (Sysmex E2500, Toaiyou-densi). The platelet density of PRP was adjusted to 300,000/μl with PPP. Platelet aggregation was measured using an 8-channel aggregometer (NBS HEMA TRACER VI Niko Bioscience Inc.). The PRP (250 μl) was preincubated at 37° C. for 2 minutes. and then incubated for 2 minutes. with 25 μl of physiological saline or various concentrations of test drugs followed by stimulation with ADP (final concentration: 3 μM). By comparing the maximum aggregation rates of the control and those of test drugs, the inhibitory rates were determined. The results are shown in [Table 1]-[Table 3].

Experiment [2] has as its system guinea pig platelet aggregation. In words: Inhibitory action on guinea pig platelet aggregation (ADP-stimulated PRP). The following applies: Cavia porcellus, ADP final concentration 1 μM, in vitro, read-out: Inhibitory effect on platelet aggregation in vitro (IC50) guinea pig. The class given is cell-based. On the procedure: TEST EXAMPLE 1 [I] Inhibitory action on guinea pig platelet aggregation
Blood was collected in 3.15% sodium citrate (1 ml for 9 ml of blood) by cardiac puncture from male guinea pig. The blood was centrifuged at 1000 g for 3 to 5 seconds at room temperature to obtain platelet rich plasma (PRP). The PRP was further centrifuged at 1000 g for 10 minutes to obtain platelet poor plasma (PPP). The number of platelets was measured using an automatic blood cell counter (Sysmex E2500, Toaiyou-densi). The platelet density of PRP was adjusted to 400,000/μl with PPP. Platelet aggregation was measured using an 8-channel aggregometer (NBS HEMA TRACER VI Niko Bioscience Inc.). The PRP (250 μl ) was preincubated at 37° C. for 2 minutes. and then incubated for 2 minutes. with 25 μl of physiological saline or various concentrations of test drugs followed by stimulation with ADP (final concentration: 1 μM). By comparing the maximum aggregation rates of the control and those of test drugs, the inhibitory rates were determined. The results are shown in [Table 1]-[Table 3].

The term IC50 denotes the concentration at which inhibition is half-maximal.

T1 sequence (P08514 32-887 limits assumed): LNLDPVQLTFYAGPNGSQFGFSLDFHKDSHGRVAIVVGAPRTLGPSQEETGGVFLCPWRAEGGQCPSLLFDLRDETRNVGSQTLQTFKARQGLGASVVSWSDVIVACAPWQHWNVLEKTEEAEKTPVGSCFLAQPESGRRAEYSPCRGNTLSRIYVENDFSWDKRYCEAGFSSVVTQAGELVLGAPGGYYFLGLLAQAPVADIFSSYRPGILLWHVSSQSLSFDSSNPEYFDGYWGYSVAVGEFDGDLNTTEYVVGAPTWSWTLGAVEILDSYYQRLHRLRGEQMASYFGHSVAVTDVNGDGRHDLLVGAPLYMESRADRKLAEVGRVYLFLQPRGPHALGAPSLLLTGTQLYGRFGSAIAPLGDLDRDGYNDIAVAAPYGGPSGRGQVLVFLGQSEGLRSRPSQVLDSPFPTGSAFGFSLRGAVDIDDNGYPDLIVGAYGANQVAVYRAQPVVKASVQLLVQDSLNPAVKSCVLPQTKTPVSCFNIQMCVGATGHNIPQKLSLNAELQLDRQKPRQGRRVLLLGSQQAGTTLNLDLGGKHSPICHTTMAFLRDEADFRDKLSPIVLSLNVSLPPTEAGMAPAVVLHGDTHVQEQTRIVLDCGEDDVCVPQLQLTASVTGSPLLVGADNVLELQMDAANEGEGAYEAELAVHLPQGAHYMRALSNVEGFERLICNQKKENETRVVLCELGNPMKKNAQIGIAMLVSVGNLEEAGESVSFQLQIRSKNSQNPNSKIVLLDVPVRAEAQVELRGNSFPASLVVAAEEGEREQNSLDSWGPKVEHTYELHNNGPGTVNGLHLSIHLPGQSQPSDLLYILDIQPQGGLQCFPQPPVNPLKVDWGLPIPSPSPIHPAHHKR
T1 sequence (P08514 891-1039 limits assumed): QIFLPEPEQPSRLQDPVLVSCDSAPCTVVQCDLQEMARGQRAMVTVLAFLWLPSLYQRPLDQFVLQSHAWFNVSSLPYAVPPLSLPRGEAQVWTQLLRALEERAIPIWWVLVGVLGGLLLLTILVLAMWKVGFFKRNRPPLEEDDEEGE
T1 sequence (P05106 27-788): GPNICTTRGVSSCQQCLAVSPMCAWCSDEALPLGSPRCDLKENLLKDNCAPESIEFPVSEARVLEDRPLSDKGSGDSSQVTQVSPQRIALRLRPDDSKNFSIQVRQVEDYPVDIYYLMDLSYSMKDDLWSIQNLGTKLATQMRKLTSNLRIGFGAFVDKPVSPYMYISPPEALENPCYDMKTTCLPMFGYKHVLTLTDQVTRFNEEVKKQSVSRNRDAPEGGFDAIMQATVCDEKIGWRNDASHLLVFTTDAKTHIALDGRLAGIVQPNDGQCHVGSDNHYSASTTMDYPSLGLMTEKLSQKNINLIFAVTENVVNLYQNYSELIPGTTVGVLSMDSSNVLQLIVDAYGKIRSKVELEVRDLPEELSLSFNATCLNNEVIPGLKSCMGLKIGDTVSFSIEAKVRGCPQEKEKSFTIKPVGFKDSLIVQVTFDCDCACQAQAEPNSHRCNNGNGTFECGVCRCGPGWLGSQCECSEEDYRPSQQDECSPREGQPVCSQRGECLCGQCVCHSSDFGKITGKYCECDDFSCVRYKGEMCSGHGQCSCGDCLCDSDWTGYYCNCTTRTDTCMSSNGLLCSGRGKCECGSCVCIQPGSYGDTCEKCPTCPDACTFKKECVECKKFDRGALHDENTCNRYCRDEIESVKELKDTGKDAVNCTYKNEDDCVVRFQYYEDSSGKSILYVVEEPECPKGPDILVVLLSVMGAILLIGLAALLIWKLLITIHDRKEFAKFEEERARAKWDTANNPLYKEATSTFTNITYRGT

`N=C(N)NC[C@H]1CC[C@H](C(=O)NCC(=O)N2CCN(CC(=O)O)C(=O)[C@@H]2CC(N)=O)CC1` [compound 22]: the concentration for half-maximal inhibition (IC50) on GPIIb/IIIa worked out at 23 nM; in experiment [1], 720 nM; in experiment [2], 4400 nM.
For `N=C(N)NC[C@H]1CC[C@H](C(=O)NCC(=O)N2CCN(CC(=O)O)C(=O)[C@@H]2CC(=O)O)CC1` [compound 5] the same measures were 20 nM, 1100 nM and 3800 nM.
Consider `COC(=O)CC[C@H]1C(=O)N(CC(=O)O)CCN1C(=O)CNC(=O)c1ccc(CCN(C)C)cc1` [compound 81], for which the concentration for half-maximal inhibition (IC50) is 37 nM on GPIIb/IIIa and 2300 nM in experiment [2].
On to `CN(CC(=O)N1CCN(CC(=O)O)C(=O)[C@@H]1CC(=O)O)C(=O)[C@H]1CC[C@H](CNC(=N)N)CC1` [compound 12], for which the half-inhibitory concentration (IC50) was determined as 10 nM on GPIIb/IIIa, 700 nM in experiment [1] and 1100 nM in experiment [2].
For `N=C(N)c1ccc(C(=O)NCC(=O)N2CCN(CC(=O)O)C(=O)[C@@H]2CCC(=O)O)cc1` [compound 66] the same measures were 0.2 nM, 52 nM and 66 nM.
For `NCCc1ccc(C(=O)NCC(=O)N2CCN(CC(=O)O)C(=O)[C@@H]2CC(N)=O)cc1` [compound 88], in that order: 2.3 nM, 140 nM and 84 nM.
On to `COC(=O)C[C@H]1C(=O)N(CC(=O)O)CCN1C(=O)CNC(=O)c1ccc(CCN)cc1` [compound 60], for which the concentration for half-maximal inhibition (IC50) at GPIIb/IIIa came to 0.91 nM; in experiment [1], 93 nM; in experiment [2] it was 78 nM.
For the compound `N=C(N)NC[C@H]1CC[C@H](C(=O)N[C@@H](Cc2ccccc2)C(=O)N2CCN(CC(=O)O)C(=O)C2)CC1` [compound 37], the IC50 at GPIIb/IIIa is 7.9 nM; in experiment [1] it was 520 nM; in experiment [2] it was 7000 nM.
For the compound `N=C(N)c1ccc(C(=O)NCC(=O)N2CCN(CC(=O)O)C(=O)[C@@H]2Cc2ccccc2)cc1` [compound 61], the figures for the IC50 in experiment [1] and in experiment [2] were 130 nM and 160 nM, respectively.
On to `N=C(N)Nc1ccc(C(=O)NCC(=O)N2CCN(CC(=O)O)C(=O)[C@@H]2CC(=O)O)cc1` [compound 10], for which the concentration for half-maximal inhibition (IC50) at GPIIb/IIIa amounted to 4.8 nM; in experiment [1], 260 nM; in experiment [2] it was 340 nM.
As to `N=C(N)NC[C@H]1CC[C@H](C(=O)NCC(=O)N2CCN(CC(=O)O)C(=O)[C@@H]2Cc2ccccc2)CC1` [compound 16], the values for the concentration for half-maximal inhibition (IC50) (at GPIIb/IIIa; in experiment [1]; in experiment [2]) were 32 nM, 990 nM and 4600 nM, respectively.
Turning to `N=C(N)Nc1ccc(C(=O)N2CCC[C@H]2C(=O)N2CCN(CC(=O)O)C(=O)[C@@H]2CC(=O)O)cc1` [compound 50], the IC50 was found to be 21 nM at GPIIb/IIIa and 345 nM in experiment [2].
`COC(=O)CN1CCN(C(=O)CNC(=O)c2ccc(C(=N)N)cc2)[C@@H](CC(=O)O)C1=O` [compound 57]: the concentration for half-maximal inhibition (IC50) turned out to be 20 nM on GPIIb/IIIa, 2600 nM in experiment [1] and 1750 nM in experiment [2].
Regarding `NCCc1ccc(C(=O)NCC(=O)N2CCN(CC(=O)O)C(=O)[C@@H]2CCC(N)=O)cc1` [compound 84], the IC50 at GPIIb/IIIa turned out to be 1 nM; in experiment [1], 120 nM; in experiment [2] it was 110 nM.
For `CC(C)(C)C(=O)OCOC(=O)CN1CCN(C(=O)CNC(=O)c2ccc(C(=N)N)cc2)[C@@H](Cc2ccccc2)C1=O` [compound 63], the IC50 on GPIIb/IIIa amounted to 8.9 nM; in experiment [1], 720 nM; in experiment [2] it was 460 nM.
For `NCCc1ccc(C(=O)NCC(=O)N2CCN(CC(=O)O)C(=O)[C@@H]2CCC(=O)O)cc1` [compound 76], the half-maximal inhibitory concentration (IC50) worked out at 1 nM on GPIIb/IIIa, 150 nM in experiment [1] and 110 nM in experiment [2].
For `N=C(N)c1ccc(C(=O)NCC(=O)N2CCN(CC(=O)O)C(=O)C2)cc1` [compound 55], in that order: 0.42 nM, 94 nM and 210 nM.
Consider `CN(CC(=O)N1CCN(CC(=O)O)C(=O)[C@@H]1CC(=O)O)C(=O)c1ccc(NC(=N)N)cc1` [compound 51], for which the 50% inhibitory concentration (IC50) in experiment [1] was found to be 460 nM; in experiment [2], 370 nM.
Turning to `N=C(N)c1ccc(CC(=O)NCC(=O)N2CCN(CC(=O)O)C(=O)[C@@H]2CC(=O)O)cc1` [compound 45], the half-inhibitory concentration (IC50) on GPIIb/IIIa worked out at 8.1 nM; in experiment [1], 1500 nM; in experiment [2] it was 1600 nM.
`NCCCc1ccc(C(=O)NCC(=O)N2CCN(CC(=O)O)C(=O)[C@@H]2CC(=O)O)cc1` [compound 48] displayed an IC50 at GPIIb/IIIa of 15 nM.
With `NCc1ccc(C(=O)NCC(=O)N2CCN(CC(=O)O)C(=O)[C@@H]2CC(=O)O)cc1` [compound 47], in experiment [1], the half-maximal inhibitory concentration (IC50) turned out to be 4200 nM.
At GPIIb/IIIa, `N=C(N)NCc1cccc(C(=O)NCC(=O)N2CCN(CC(=O)O)C(=O)[C@@H]2CC(=O)O)c1` [compound 9] yielded an IC50 of 73 nM.
As to `CCC(C)[C@H]1C(=O)N(CC(=O)O)CCN1C(=O)CNC(=O)c1ccc(NC(=N)N)cc1` (stereo partly shown) [compound 65], the IC50 was found to be 98 nM at GPIIb/IIIa and 4600 nM in experiment [2].
Consider `N=C(N)NC[C@H]1CC[C@H](C(=O)NCC(=O)N2CCN(CC(=O)O)C(=O)C2)CC1` [compound 35], for which the results for the IC50 in experiment [1] and in experiment [2] were 1100 nM and 5200 nM, respectively.
On to `N=C(N)NCCCCC(=O)NCC(=O)N1CCN(CC(=O)O)C(=O)[C@@H]1CC(=O)O` [compound 6], for which the IC50 on GPIIb/IIIa amounted to 46 nM.
